Laboratory results from patent US20260022142A1, “MACROCYCLIC IMMUNOMODULATORS” (Bristol-Myers Squibb Company, priority 2022, published 2026).
Bridge positions count the residues as written; N and C are the ends. Square brackets hold non-standard residues; d marks the D form. Peptide text beside a SMILES is read from it. * marks the point of attachment. ξ: configuration not given here. Phe(4-COOH) = N[C@@H](Cc1ccc(C(=O)O)cc1)C(=O)O; Bip = N[C@@H](Cc1ccc(-c2ccccc2)cc1)C(=O)O; Phe(3-Me) = Cc1cccc(C[C@H](N)C(=O)O)c1; Val(3-OH) = CC(C)(O)[C@H](N)C(=O)O; 4Pal = N[C@@H](Cc1ccncc1)C(=O)O; 2Thi = N[C@@H](Cc1cccs1)C(=O)O; Aad = N[C@@H](CCCC(=O)O)C(=O)O; Cha = N[C@@H](CC1CCCCC1)C(=O)O; Cit = NC(=O)NCCC[C@H](N)C(=O)O; dCha = N[C@H](CC1CCCCC1)C(=O)O; Thr(3ξ) = CC(O)[C@H](N)C(=O)O; Tle = CC(C)(C)[C@H](N)C(=O)O; Carboxymethyl = O=C(O)C*; Orn = NCCC[C@H](N)C(=O)O; Aun = NCCCCCCCCCCC(=O)O; Dab = NCC[C@H](N)C(=O)O; Dap = NC[C@H](N)C(=O)O; AEEA = NCCOCCOCC(=O)O

target: T1, PD-1/PD-L1 interaction (PE-labeled human PD-L1-Ig binding to Jurkat cell line over-expressing human PD-1) (Homo sapiens, UniProt Q15116); experiment: Jurkat-PD-1 Cell Binding High-Content Screening Assay (CBA); format: cell-based; conditions: Jurkat cell line over-expressing human PD-1; PE-labeled PD-L1-Ig 20 nM final; read-out: Jurkat hPD1-PDL1 IC50
T1 construct: expressed in transfected cells; host or cells: Jurkat
T1 sequence (Q15116 25-288): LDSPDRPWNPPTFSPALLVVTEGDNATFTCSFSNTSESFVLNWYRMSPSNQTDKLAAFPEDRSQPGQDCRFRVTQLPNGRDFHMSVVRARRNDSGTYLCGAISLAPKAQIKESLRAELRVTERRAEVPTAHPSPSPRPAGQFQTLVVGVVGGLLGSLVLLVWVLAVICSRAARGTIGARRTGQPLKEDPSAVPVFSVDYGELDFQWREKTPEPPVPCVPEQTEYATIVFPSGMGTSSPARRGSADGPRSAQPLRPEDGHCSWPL
Outline: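 First, compound is added to PD-1-expressing Jurkat cells in serum-containing DMEM and left 2 h at 37° C. Next, PE-conjugated PD-L1-Ig is introduced at 20 nM final concentration for 1 hour. Finally, cells are fixed in 4% paraformaldehyde with Hoechst 33342, washed and imaged.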

SMILES	IC50 [nM]
Cc1cccc(C[C@@H]2NC(=O)[C@H](CC(=O)O)NC(=O)[C@H](Cc3ccc(OCC(=O)O)cc3)NC(=O)[C@H](CCCNC(=N)N)NC(=O)CSC[C@@H](C(=O)N[C@H](CC(N)=O)C(=O)NCCCCCCCCCCC(=O)O)NC(=O)[C@H](C(C)O)NC(=O)[C@H](C(C)C)NC(=O)[C@H](CC3CCCCC3)NC(=O)[C@H](CCN)NC(=O)[C@@H](CC(C)C)NC(=O)[C@H](CCCN)NC(=O)[C@H](Cc3ccc(OCC(=O)O)cc3)NC(=O)[C@H](Cc3ccc(-c4ccccc4)cc3)NC(=O)[C@H](Cc3ccc(OCC(=O)O)cc3)NC2=O)c1 (stereo partly drawn) [Compound 3489] ({CH2CO}-RY(Carboxymethyl)D[Phe(3-Me)]Y(Carboxymethyl)[Bip]Y(Carboxymethyl)[Orn][dL][Dab][Cha]V[Thr(3ξ)]C[dN][Aun]-OH; thioether N-14)	22
Cc1cccc(C[C@@H]2NC(=O)[C@H](CC(=O)O)NC(=O)[C@H](Cc3ccc(OCC(=O)O)cc3)NC(=O)[C@@H](CCCNC(=N)N)NC(=O)CSC[C@@H](C(=O)N[C@@H](CCN)C(=O)NCCCCCCCCCCC(=O)O)NC(=O)[C@H](CO)NC(=O)[C@H](C(C)(C)O)NC(=O)[C@H](CC3CCCCC3)NC(=O)[C@H](CCN)NC(=O)[C@@H](CC(C)C)NC(=O)[C@H](CCCN)NC(=O)[C@H](Cc3ccc(OCC(=O)O)cc3)NC(=O)[C@H](Cc3ccc(-c4ccccc4)cc3)NC(=O)[C@H](Cc3ccc(OCC(=O)O)cc3)NC2=O)c1 [Compound 2232] ({CH2CO}-[dR]Y(Carboxymethyl)D[Phe(3-Me)]Y(Carboxymethyl)[Bip]Y(Carboxymethyl)[Orn][dL][Dab][Cha][Val(3-OH)]SC[Dab][Aun]-OH; thioether N-14)	238
Cc1cccc(C[C@@H]2NC(=O)[C@H](CC(=O)O)NC(=O)[C@H](Cc3ccc(OCC(=O)O)cc3)NC(=O)[C@H](C(C)O)NC(=O)CSC[C@@H](C(=O)N[C@H](CC(N)=O)C(=O)NCCCCCCCCCCC(=O)O)NC(=O)[C@H](C(C)(C)C)NC(=O)[C@H](CO)NC(=O)[C@H](CC3CCCCC3)NC(=O)[C@H](CCN)NC(=O)[C@@H](CC(C)C)NC(=O)[C@H](CCCN)NC(=O)[C@H](Cc3ccc(OCC(=O)O)cc3)NC(=O)[C@H](Cc3ccc(-c4ccccc4)cc3)NC(=O)[C@H](Cc3ccc(O)cc3)NC2=O)c1 (stereo partly drawn) [Compound 3520] ({CH2CO}-[Thr(3ξ)]Y(Carboxymethyl)D[Phe(3-Me)]Y[Bip]Y(Carboxymethyl)[Orn][dL][Dab][Cha]S[Tle]C[dN][Aun]-OH; thioether N-14)	608
Cc1cccc(C[C@@H]2NC(=O)[C@H](CC(=O)O)NC(=O)[C@H](Cc3ccc(OCC(=O)O)cc3)NC(=O)[C@H](CN)NC(=O)CSC[C@@H](C(=O)NCCOCCOCC(=O)N[C@@H](CCN)C(=O)NCCCCCCCCCCC(=O)O)NC(=O)[C@H](CN)NC(=O)[C@H](C(C)C)NC(=O)[C@H](CC3CCCCC3)NC(=O)[C@H](CCN)NC(=O)[C@@H](CC3CCCCC3)NC(=O)[C@H](CCCN)NC(=O)[C@H](C(C)C)NC(=O)[C@H](Cc3ccc(-c4ccccc4)cc3)NC(=O)[C@H](C(C)C)NC2=O)c1 [Compound 2675] ({CH2CO}-[Dap]Y(Carboxymethyl)D[Phe(3-Me)]V[Bip]V[Orn][dCha][Dab][Cha]V[Dap]C[AEEA][Dab][Aun]-OH; thioether N-14)	24.1
CC(C)C[C@@H]1NC(=O)[C@H](Cc2c[nH]c3ccccc23)NC(=O)[C@H](CC(=O)O)NC(=O)[C@H](Cc2ccc(OCC(=O)O)cc2)NC(=O)[C@H](CN)NC(=O)CSC[C@@H](C(=O)N[C@@H](CCN)C(=O)NCCCCCCCCCCC(=O)O)NC(=O)[C@H](CN)NC(=O)[C@H](C(C)O)NC(=O)[C@H](CC2CCCCC2)NC(=O)[C@H](CCN)NC(=O)[C@@H](CC(C)C)NC(=O)[C@H](CCCN)NC(=O)[C@H](Cc2ccc(O)cc2)NC(=O)[C@H](Cc2ccc(-c3ccccc3)cc2)NC1=O (stereo partly drawn) [Compound 3658] ({CH2CO}-[Dap]Y(Carboxymethyl)DWL[Bip]Y[Orn][dL][Dab][Cha][Thr(3ξ)][Dap]C[Dab][Aun]-OH; thioether N-14)	88

The next molecules have a lower IC50 than those just listed; values first:

IC50 [nM]	SMILES
9.7	Cc1cccc(C[C@@H]2NC(=O)[C@H](CC(=O)O)NC(=O)[C@H](Cc3ccc(OCC(=O)O)cc3)NC(=O)[C@H](CN)NC(=O)CSC[C@@H](C(=O)N[C@@H](CCCCN)C(=O)NCCOCCOCC(=O)NCCCCCCCCCCC(=O)O)NC(=O)[C@H](CCCN)NC(=O)[C@H](C(C)C)NC(=O)[C@H](CC3CCCCC3)NC(=O)[C@H](CCN)NC(=O)[C@@H](CC(C)C)NC(=O)[C@H](CCCN)NC(=O)[C@H](CCCNC(N)=O)NC(=O)[C@H](Cc3ccc(-c4ccccc4)cc3)NC(=O)[C@H](C(C)C)NC2=O)c1 [Compound 2651] ({CH2CO}-[Dap]Y(Carboxymethyl)D[Phe(3-Me)]V[Bip][Cit][Orn][dL][Dab][Cha]V[Orn]CK[AEEA][Aun]-OH; thioether N-14)
5.1	Cc1cccc(C[C@@H]2NC(=O)[C@H](CC(=O)O)NC(=O)[C@H](Cc3ccc(OCC(=O)O)cc3)NC(=O)[C@H](CCCNC(=N)N)NC(=O)CSC[C@@H](C(=O)N[C@@H](CCN)C(=O)NCCCCCCCCCCC(=O)O)NC(=O)[C@H](CCC(N)=O)NC(=O)[C@H](C(C)(C)O)NC(=O)[C@H](CC3CCCCC3)NC(=O)[C@H](CCN)NC(=O)[C@@H](CC(C)C)NC(=O)[C@H](CCCN)NC(=O)[C@H](Cc3ccc(OCC(=O)O)cc3)NC(=O)[C@H](Cc3ccc(-c4ccccc4)cc3)NC(=O)[C@H](Cc3ccc(OCC(=O)O)cc3)NC2=O)c1 [Compound 3533] ({CH2CO}-RY(Carboxymethyl)D[Phe(3-Me)]Y(Carboxymethyl)[Bip]Y(Carboxymethyl)[Orn][dL][Dab][Cha][Val(3-OH)]QC[Dab][Aun]-OH; thioether N-14)
9.4	Cc1cccc(C[C@@H]2NC(=O)[C@H](CC(=O)O)NC(=O)[C@H](Cc3ccc(OCC(=O)O)cc3)NC(=O)[C@H](Cc3ccncc3)NC(=O)CSC[C@@H](C(=O)N[C@@H](CCN)C(=O)NCCCCCCCCCCC(=O)O)NC(=O)[C@H](CO)NC(=O)[C@H](C(C)(C)O)NC(=O)[C@H](CC3CCCCC3)NC(=O)[C@H](CCN)NC(=O)[C@@H](CC(C)C)NC(=O)[C@H](CCCN)NC(=O)[C@H](Cc3ccc(OCC(=O)O)cc3)NC(=O)[C@H](Cc3ccc(-c4ccccc4)cc3)NC(=O)[C@H](Cc3cccs3)NC2=O)c1 [Compound 2188] ({CH2CO}-[4Pal]Y(Carboxymethyl)D[Phe(3-Me)][2Thi][Bip]Y(Carboxymethyl)[Orn][dL][Dab][Cha][Val(3-OH)]SC[Dab][Aun]-OH; thioether N-14)
14.2	Cc1cccc(C[C@@H]2NC(=O)[C@H](CC(=O)O)NC(=O)[C@H](Cc3ccc(OCC(=O)O)cc3)NC(=O)[C@H](CN)NC(=O)CSC[C@@H](C(=O)N[C@@H](C)C(=O)N[C@@H](CCCN)C(=O)NCCCCCCCCCCC(=O)O)NC(=O)[C@H]([C@@H](C)O)NC(=O)[C@H](C(C)C)NC(=O)[C@H](CC3CCCCC3)NC(=O)[C@H](CCN)NC(=O)[C@@H](CC(C)C)NC(=O)[C@H](CCCN)NC(=O)[C@H](CCCNC(N)=O)NC(=O)[C@H](Cc3ccc(-c4ccccc4)cc3)NC(=O)[C@H](C(C)C)NC2=O)c1 [Compound 1072] ({CH2CO}-[Dap]Y(Carboxymethyl)D[Phe(3-Me)]V[Bip][Cit][Orn][dL][Dab][Cha]VTCA[Orn][Aun]-OH; thioether N-14)
7.3	CC(C)C[C@H]1NC(=O)[C@H](CCCN)NC(=O)[C@H](C(C)C)NC(=O)[C@H](Cc2ccc(-c3ccccc3)cc2)NC(=O)[C@H](C(C)C)NC(=O)[C@H](Cc2c[nH]c3ccccc23)NC(=O)[C@H](CC(=O)O)NC(=O)[C@H](Cc2ccc(C(=O)O)cc2)NC(=O)[C@H](Cc2ccncc2)NC(=O)CSC[C@@H](C(=O)NCC(=O)NCCOCCOCC(=O)N[C@@H](CCCN)C(=O)NCCCCCCCCCCC(=O)O)NC(=O)[C@H](CN)NC(=O)[C@H](C(C)C)NC(=O)[C@H](CC2CCCCC2)NC(=O)[C@H](CCN)NC1=O [Compound 3234] ({CH2CO}-[4Pal][Phe(4-COOH)]DWV[Bip]V[Orn][dL][Dab][Cha]V[Dap]CG[AEEA][Orn][Aun]-OH; thioether N-14)
9.1	Cc1cccc(C[C@@H]2NC(=O)[C@H](CC(=O)O)NC(=O)[C@H](Cc3ccc(OCC(=O)O)cc3)NC(=O)[C@H](CN)NC(=O)CSC[C@@H](C(=O)N[C@@H](CCN)C(=O)NCCCCCCCCCCC(=O)O)NC(=O)[C@H](CCCC(N)=O)NC(=O)[C@H](C(C)C)NC(=O)[C@H](CC3CCCCC3)NC(=O)[C@H](CCN)NC(=O)[C@@H](CC(C)C)NC(=O)[C@H](CCCN)NC(=O)[C@H](Cc3ccc(O)cc3)NC(=O)[C@H](Cc3ccc(-c4ccccc4)cc3)NC(=O)[C@H](Cc3ccc(O)cc3)NC2=O)c1 [Compound 2750] ({CH2CO}-[Dap]Y(Carboxymethyl)D[Phe(3-Me)]Y[Bip]Y[Orn][dL][Dab][Cha]V[Aad](NH2)C[Dab][Aun]-OH; thioether N-14)
5.3	Cc1cccc(C[C@@H]2NC(=O)[C@H](CC(=O)O)NC(=O)[C@H](Cc3ccc(OCC(=O)O)cc3)NC(=O)[C@H](CN)NC(=O)CSC[C@@H](C(=O)N[C@@H](CCN)C(=O)NCCOCCOCC(=O)NCCCCCCCCCCC(=O)O)NC(=O)[C@H](CCCN)NC(=O)[C@H](C(C)C)NC(=O)[C@H](CC3CCCCC3)NC(=O)[C@H](CCN)NC(=O)[C@@H](CC(C)C)NC(=O)[C@H](CCCN)NC(=O)[C@H](Cc3ccc(O)cc3)NC(=O)[C@H](Cc3ccc(-c4ccccc4)cc3)NC(=O)[C@H](C(C)C)NC2=O)c1 [Compound 2588] ({CH2CO}-[Dap]Y(Carboxymethyl)D[Phe(3-Me)]V[Bip]Y[Orn][dL][Dab][Cha]V[Orn]C[Dab][AEEA][Aun]-OH; thioether N-14)
15	Cc1cccc(C[C@@H]2NC(=O)[C@H](CC(=O)O)NC(=O)[C@H](Cc3ccc(OCC(=O)O)cc3)NC(=O)[C@H](CN)NC(=O)CSC[C@@H](C(=O)NCCOCCOCC(=O)NCCCCCCCCCCC(=O)O)NC(=O)[C@H](CCCN)NC(=O)[C@H](C(C)C)NC(=O)[C@H](CC3CCCCC3)NC(=O)[C@H](CCN)NC(=O)[C@@H](CC(C)C)NC(=O)[C@H](CCCN)NC(=O)[C@H](Cc3ccc(O)cc3)NC(=O)[C@H](Cc3ccc(-c4ccccc4)cc3)NC(=O)[C@H](Cc3ccc(O)cc3)NC2=O)c1 [Compound 2691] ({CH2CO}-[Dap]Y(Carboxymethyl)D[Phe(3-Me)]Y[Bip]Y[Orn][dL][Dab][Cha]V[Orn]C[AEEA][Aun]-OH; thioether N-14)
